The record followed here is paper PMC2935290 (Journal of immunology (Baltimore, Md. : 1950), 2010).

Substitutions are numbered along the chain they refer to. Where no end group is shown, it is not given here.

Experiment [1] concerns the target T1, HLA-DPB1*0402 (Homo sapiens, UniProt P04440+P20036, A65V/A84D/A85E/L207M).
T1 sequence (P04440 30-258 A65V/A84D/A85E): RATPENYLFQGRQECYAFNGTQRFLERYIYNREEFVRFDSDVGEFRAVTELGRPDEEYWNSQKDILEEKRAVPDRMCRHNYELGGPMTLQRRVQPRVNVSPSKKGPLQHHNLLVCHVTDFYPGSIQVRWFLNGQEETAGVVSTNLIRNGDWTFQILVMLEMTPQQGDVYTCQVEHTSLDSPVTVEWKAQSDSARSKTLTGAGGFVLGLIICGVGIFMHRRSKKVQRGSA
T1 sequence (P20036 29-260): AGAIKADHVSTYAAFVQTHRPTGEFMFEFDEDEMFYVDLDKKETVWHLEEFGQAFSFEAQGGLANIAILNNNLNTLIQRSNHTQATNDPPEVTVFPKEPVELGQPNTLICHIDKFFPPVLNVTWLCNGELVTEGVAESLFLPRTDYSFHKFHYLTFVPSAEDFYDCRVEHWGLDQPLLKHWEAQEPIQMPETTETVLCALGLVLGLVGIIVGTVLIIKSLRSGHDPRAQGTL
The experiment in a line: biochemical. The experiment is classed as binding.

Experiment [2] deals with T2, HLA-DPB1*0201 (Homo sapiens, UniProt P04440+P20036, A65V/A84D/A85E/K98E).
T2 sequence (P04440 30-258 A65V/A84D/A85E/K98E): T1 sequence (P04440 30-258 A65V/A84D/A85E) with K69E
T2 sequence (P20036 29-260): T1 sequence (P20036 29-260)
As to the kind of experiment: biochemical. It is filed as binding.

By IC50 is commonly meant the point on the concentration scale where inhibition reaches its midpoint. Lower therefore signals greater potency in that assay. Take `CC(C)C[C@H](NC(=O)[C@@H](NC(=O)[C@H](CC(N)=O)NC(=O)[C@H](Cc1ccccc1)NC(=O)[C@H](CC(C)C)NC(=O)[C@H](CO)NC(=O)[C@H](Cc1c[nH]c2ccccc12)NC(=O)[C@@H](NC(=O)[C@@H](NC(=O)[C@H](Cc1c[nH]cn1)NC(=O)[C@H](CC(=O)O)NC(=O)[C@@H]1CCCN1C(=O)[C@@H](N)C(C)C)C(C)C)C(C)C)[C@@H](C)O)C(=O)O`: the concentration for half-maximal inhibition (IC50) in experiment [1] was determined as 0.0084 µM; in experiment [2], 0.0011 µM.

With CDGERPTLAFLQDVM, the IC50 amounted to 15.2 µM in experiment [1] and 32.8 µM in experiment [2].

As to SDVGEFRAVTELG, the IC50 amounted to 4.05 µM in experiment [1] and 0.619 µM in experiment [2].

Take `CC[C@H](C)[C@H](NC(=O)[C@H](CO)NC(=O)[C@H](CCC(=O)O)NC(=O)[C@H](C)NC(=O)[C@H](CCC(=O)O)NC(=O)[C@H](CCSC)NC(=O)[C@H](CCC(N)=O)NC(=O)[C@H](CCCCN)NC(=O)[C@@H](NC(=O)[C@H](CC(=O)O)NC(=O)[C@H](CCC(=O)O)NC(=O)[C@H](CCSC)NC(=O)[C@H](C)NC(=O)[C@H](CCC(N)=O)NC(=O)[C@H](CC(=O)O)NC(=O)[C@H](CCC(=O)O)NC(=O)[C@@H](N)[C@@H](C)O)[C@@H](C)CC)C(=O)N[C@@H](CO)C(=O)O`: the figures for the half-maximal inhibitory concentration (IC50) in experiment [1] and in experiment [2] were 2.47 µM and 4.77 µM, respectively.

For `CC(C)C[C@H](NC(=O)[C@@H](NC(=O)[C@H](Cc1c[nH]cn1)NC(=O)[C@H](CO)NC(=O)[C@H](Cc1ccccc1)NC(=O)[C@H](CO)NC(=O)CNC(=O)CNC(=O)[C@H](CC(C)C)NC(=O)[C@H](Cc1ccc(O)cc1)NC(=O)[C@H](CCCNC(=N)N)NC(=O)[C@H](Cc1ccc(O)cc1)NC(=O)[C@H](CC(C)C)NC(=O)[C@@H]1CCCN1)C(C)C)C(=O)O`, the IC50 came out at 0.149 µM in experiment [1] and 0.013 µM in experiment [2].
